Target: Mitogen-activated protein kinase 1 (Homo sapiens, UniProt P28482)
Assay: DRUGMATRIX: Protein Serine/Threonine Kinase, ERK2 enzyme inhibition (substrate: Myelin Basic Protein)
Design: species or system Escherichia coli
Details: Not Active = under 50% inhibition at 10 µM

Sequence of Mitogen-activated protein kinase 1 (P28482 whole entry): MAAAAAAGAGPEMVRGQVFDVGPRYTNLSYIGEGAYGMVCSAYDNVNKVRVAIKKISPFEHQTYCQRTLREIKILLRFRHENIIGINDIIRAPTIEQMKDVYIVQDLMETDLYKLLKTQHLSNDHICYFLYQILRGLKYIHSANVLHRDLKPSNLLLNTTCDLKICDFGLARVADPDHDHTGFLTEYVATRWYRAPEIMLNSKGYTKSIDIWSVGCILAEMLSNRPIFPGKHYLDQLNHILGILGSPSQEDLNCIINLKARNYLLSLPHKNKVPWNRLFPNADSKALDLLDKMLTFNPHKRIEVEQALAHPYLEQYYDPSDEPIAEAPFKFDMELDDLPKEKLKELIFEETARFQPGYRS

Row | Structure (SMILES) | IC50
1 | COC(=O)[C@@H]1[C@H]2C[C@H]3c4[nH]c5ccccc5c4CCN3C[C@@H]2CC[C@@H]1O [YOHIMBINE] | Not Active
2 | COc1ccc(C(CN(C)C)C2(O)CCCCC2)cc1 (stereo not given) [VENLAFAXINE] | Not Active
3 | CN(N=O)C(=O)N[C@@H](C=O)[C@@H](O)[C@H](O)[C@H](O)CO [STREPTOZOCIN] | Not Active

Target: T1, Leukotriene C4 synthase (Cavia porcellus, UniProt A6XA80);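 note: enzyme inhibition assay of leukotriene C4 synthase, using LTA4 as the substrate; in other assays of this panel Not Active means under 50% inhibition at 10 µM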
T1 sequence (A6XA80 whole entry): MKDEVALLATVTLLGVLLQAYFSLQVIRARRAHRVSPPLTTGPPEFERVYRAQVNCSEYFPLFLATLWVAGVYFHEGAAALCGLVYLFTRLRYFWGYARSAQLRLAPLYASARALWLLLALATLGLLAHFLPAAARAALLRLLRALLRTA
Assay: biochemical
Format: tissue-based, Lung
Details: not given

Row | Structure (SMILES) | IC50
4 | COC(=O)[C@@H]1[C@H]2C[C@H]3c4[nH]c5ccccc5c4CCN3C[C@@H]2CC[C@@H]1O [YOHIMBINE] | Not Active
5 | COc1ccc(C(CN(C)C)C2(O)CCCCC2)cc1 (stereo not given) [VENLAFAXINE] | Not Active
6 | CN(N=O)C(=O)N[C@@H](C=O)[C@@H](O)[C@H](O)[C@H](O)CO [STREPTOZOCIN] | Not Active

Target: T2, C-C chemokine receptor type 4 (Homo sapiens, UniProt P51679); note: in other assays of this panel Not Active means under 50% inhibition at 10 µM
T2 sequence (P51679 whole entry): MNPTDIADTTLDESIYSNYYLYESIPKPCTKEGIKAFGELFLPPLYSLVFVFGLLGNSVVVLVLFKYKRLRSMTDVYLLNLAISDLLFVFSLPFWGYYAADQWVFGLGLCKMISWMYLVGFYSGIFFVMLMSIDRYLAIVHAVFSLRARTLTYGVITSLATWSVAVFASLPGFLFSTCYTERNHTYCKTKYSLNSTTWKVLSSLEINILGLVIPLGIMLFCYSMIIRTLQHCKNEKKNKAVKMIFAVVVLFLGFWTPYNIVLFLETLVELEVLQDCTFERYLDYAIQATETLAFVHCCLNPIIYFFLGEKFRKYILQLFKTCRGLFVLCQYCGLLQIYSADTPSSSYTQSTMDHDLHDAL
Assay: not given
Format: cell membranes, Membrane
Details: chem-1

Row | Structure (SMILES) | IC50
7 | COC(=O)[C@@H]1[C@H]2C[C@H]3c4[nH]c5ccccc5c4CCN3C[C@@H]2CC[C@@H]1O [YOHIMBINE] | Not Active
8 | COc1ccc(C(CN(C)C)C2(O)CCCCC2)cc1 (stereo not given) [VENLAFAXINE] | Not Active
9 | CN(N=O)C(=O)N[C@@H](C=O)[C@@H](O)[C@H](O)[C@H](O)CO [STREPTOZOCIN] | Not Active

Target: T3, Cysteinyl leukotriene receptor 1 (Homo sapiens, UniProt Q9Y271); note: in other assays of this panel Not Active means under 50% inhibition at 10 µM
T3 sequence (Q9Y271 whole entry): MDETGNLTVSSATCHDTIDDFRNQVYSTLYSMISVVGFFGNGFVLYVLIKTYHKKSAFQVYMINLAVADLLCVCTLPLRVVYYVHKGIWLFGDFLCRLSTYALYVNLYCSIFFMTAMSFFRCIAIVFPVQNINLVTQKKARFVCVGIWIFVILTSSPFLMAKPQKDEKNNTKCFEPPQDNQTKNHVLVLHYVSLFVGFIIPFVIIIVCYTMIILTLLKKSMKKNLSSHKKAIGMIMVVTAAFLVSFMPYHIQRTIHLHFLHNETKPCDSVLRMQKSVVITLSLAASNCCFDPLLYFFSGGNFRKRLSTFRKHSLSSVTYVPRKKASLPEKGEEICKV
Assay: not given
Format: cell membranes, CHO-K1, Membrane
Details: cho-k1

Row | Structure (SMILES) | IC50
10 | COC(=O)[C@@H]1[C@H]2C[C@H]3c4[nH]c5ccccc5c4CCN3C[C@@H]2CC[C@@H]1O [YOHIMBINE] | Not Active
11 | COc1ccc(C(CN(C)C)C2(O)CCCCC2)cc1 (stereo not given) [VENLAFAXINE] | Not Active
12 | CN(N=O)C(=O)N[C@@H](C=O)[C@@H](O)[C@H](O)[C@H](O)CO [STREPTOZOCIN] | Not Active

Target: T4, Interstitial collagenase (Homo sapiens, UniProt P03956);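 note: MMP-1 enzyme inhibition assay using a peptide substrate; in other assays of this panel Not Active means under 50% inhibition at 10 µM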
T4 sequence (P03956 whole entry): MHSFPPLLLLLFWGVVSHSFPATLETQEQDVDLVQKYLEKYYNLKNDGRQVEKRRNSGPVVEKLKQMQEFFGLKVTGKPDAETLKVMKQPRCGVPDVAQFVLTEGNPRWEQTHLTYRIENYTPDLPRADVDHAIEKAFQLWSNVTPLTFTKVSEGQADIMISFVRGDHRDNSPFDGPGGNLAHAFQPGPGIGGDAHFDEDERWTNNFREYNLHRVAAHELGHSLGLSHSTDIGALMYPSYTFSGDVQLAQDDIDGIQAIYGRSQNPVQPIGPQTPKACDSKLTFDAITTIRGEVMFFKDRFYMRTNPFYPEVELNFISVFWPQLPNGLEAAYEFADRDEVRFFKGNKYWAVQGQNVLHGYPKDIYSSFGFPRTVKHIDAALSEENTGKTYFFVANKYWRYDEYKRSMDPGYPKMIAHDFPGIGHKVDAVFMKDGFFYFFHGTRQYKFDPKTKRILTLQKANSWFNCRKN
Assay: not given
Format: tissue-based, Rheumatoid synovial fibroblasts
Details: not given

Row | Structure (SMILES) | IC50
13 | COC(=O)[C@@H]1[C@H]2C[C@H]3c4[nH]c5ccccc5c4CCN3C[C@@H]2CC[C@@H]1O [YOHIMBINE] | Not Active
14 | COc1ccc(C(CN(C)C)C2(O)CCCCC2)cc1 (stereo not given) [VENLAFAXINE] | Not Active
15 | CN(N=O)C(=O)N[C@@H](C=O)[C@@H](O)[C@H](O)[C@H](O)CO [STREPTOZOCIN] | Not Active

Target: T5, C-X-C chemokine receptor type 2 (Homo sapiens, UniProt P25025); note: in other assays of this panel Not Active means under 50% inhibition at 10 µM
T5 sequence (P25025 whole entry): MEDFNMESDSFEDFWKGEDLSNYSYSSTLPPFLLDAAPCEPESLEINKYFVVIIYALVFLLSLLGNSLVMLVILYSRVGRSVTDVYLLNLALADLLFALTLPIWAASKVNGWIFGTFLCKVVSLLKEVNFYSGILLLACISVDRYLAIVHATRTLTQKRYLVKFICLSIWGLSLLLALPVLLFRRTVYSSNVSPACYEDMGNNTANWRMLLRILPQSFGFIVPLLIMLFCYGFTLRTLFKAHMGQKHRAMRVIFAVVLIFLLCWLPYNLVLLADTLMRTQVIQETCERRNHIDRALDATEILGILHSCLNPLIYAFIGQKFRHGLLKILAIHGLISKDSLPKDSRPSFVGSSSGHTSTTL
Assay: not given
Format: cell membranes, Membrane
Details: cho-k1

Row | Structure (SMILES) | IC50
16 | COC(=O)[C@@H]1[C@H]2C[C@H]3c4[nH]c5ccccc5c4CCN3C[C@@H]2CC[C@@H]1O [YOHIMBINE] | Not Active
17 | COc1ccc(C(CN(C)C)C2(O)CCCCC2)cc1 (stereo not given) [VENLAFAXINE] | Not Active
18 | CN(N=O)C(=O)N[C@@H](C=O)[C@@H](O)[C@H](O)[C@H](O)CO [STREPTOZOCIN] | Not Active

Tested on: not listed separately
Assay: DRUGMATRIX: Glutamate, NMDA, Agonism radioligand binding (ligand: [3H] CGP-39653)
Format: cell membranes, Rattus norvegicus, Wistar, Cerebral cortex, Membrane
Details: Not Active = under 50% inhibition at 10 µM

Row | Structure (SMILES) | IC50 | Ki
19 | COC(=O)[C@@H]1[C@H]2C[C@H]3c4[nH]c5ccccc5c4CCN3C[C@@H]2CC[C@@H]1O [YOHIMBINE] | Not Active | Not Active
20 | COc1ccc(C(CN(C)C)C2(O)CCCCC2)cc1 (stereo not given) [VENLAFAXINE] | Not Active | Not Active
21 | CN(N=O)C(=O)N[C@@H](C=O)[C@@H](O)[C@H](O)[C@H](O)CO [STREPTOZOCIN] | Not Active | Not Active

Target: Vasopressin V1a receptor (Homo sapiens, UniProt P37288); note: in other assays of this panel Not Active means under 50% inhibition at 10 µM
Assay: not given
Format: cell membranes, Membrane
Details: hek293

Sequence of Vasopressin V1a receptor (P37288 whole entry): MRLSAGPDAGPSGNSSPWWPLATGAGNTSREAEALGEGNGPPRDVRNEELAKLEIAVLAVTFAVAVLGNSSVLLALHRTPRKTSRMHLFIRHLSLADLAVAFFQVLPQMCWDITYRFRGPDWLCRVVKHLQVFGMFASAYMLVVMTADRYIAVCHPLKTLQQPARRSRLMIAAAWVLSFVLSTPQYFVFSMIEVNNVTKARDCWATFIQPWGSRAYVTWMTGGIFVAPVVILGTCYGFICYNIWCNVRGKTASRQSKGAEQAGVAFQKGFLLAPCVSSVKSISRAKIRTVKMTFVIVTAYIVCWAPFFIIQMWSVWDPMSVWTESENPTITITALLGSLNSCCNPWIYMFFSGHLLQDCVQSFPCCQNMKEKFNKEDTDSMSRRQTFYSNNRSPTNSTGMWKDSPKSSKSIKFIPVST

Row | Structure (SMILES) | IC50
22 | COC(=O)[C@@H]1[C@H]2C[C@H]3c4[nH]c5ccccc5c4CCN3C[C@@H]2CC[C@@H]1O [YOHIMBINE] | Not Active
23 | COc1ccc(C(CN(C)C)C2(O)CCCCC2)cc1 (stereo not given) [VENLAFAXINE] | Not Active
24 | CN(N=O)C(=O)N[C@@H](C=O)[C@@H](O)[C@H](O)[C@H](O)CO [STREPTOZOCIN] | Not Active

Tested on: not listed separately
Assay: DRUGMATRIX: Glutamate, NMDA, Phencyclidine radioligand binding (ligand: [3H] TCP)
Format: cell membranes, Rattus norvegicus, Wistar, Cerebral cortex, Membrane
Details: Not Active = under 50% inhibition at 10 µM

Row | Structure (SMILES) | IC50 | Ki
25 | COC(=O)[C@@H]1[C@H]2C[C@H]3c4[nH]c5ccccc5c4CCN3C[C@@H]2CC[C@@H]1O [YOHIMBINE] | Not Active | Not Active
26 | COc1ccc(C(CN(C)C)C2(O)CCCCC2)cc1 (stereo not given) [VENLAFAXINE] | Not Active | Not Active
27 | CN(N=O)C(=O)N[C@@H](C=O)[C@@H](O)[C@H](O)[C@H](O)CO [STREPTOZOCIN] | Not Active | Not Active

Target: T6, Neuropeptide Y receptor type 1 (Homo sapiens, UniProt P25929); note: in other assays of this panel Not Active means under 50% inhibition at 10 µM
T6 sequence (P25929 whole entry): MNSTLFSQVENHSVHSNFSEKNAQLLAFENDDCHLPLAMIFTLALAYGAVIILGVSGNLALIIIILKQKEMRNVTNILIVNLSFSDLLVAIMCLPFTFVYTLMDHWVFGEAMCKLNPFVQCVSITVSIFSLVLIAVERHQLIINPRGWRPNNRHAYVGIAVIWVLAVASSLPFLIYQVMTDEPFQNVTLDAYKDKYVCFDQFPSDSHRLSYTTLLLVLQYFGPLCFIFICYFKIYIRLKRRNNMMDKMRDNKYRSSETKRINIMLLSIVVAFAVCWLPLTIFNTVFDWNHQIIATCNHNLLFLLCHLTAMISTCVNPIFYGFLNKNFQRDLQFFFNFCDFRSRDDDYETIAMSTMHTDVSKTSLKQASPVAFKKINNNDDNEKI
Assay: not given
Format: cell membranes, Membrane
Details: sk-n-mc

Row | Structure (SMILES) | IC50
28 | COC(=O)[C@@H]1[C@H]2C[C@H]3c4[nH]c5ccccc5c4CCN3C[C@@H]2CC[C@@H]1O [YOHIMBINE] | Not Active
29 | COc1ccc(C(CN(C)C)C2(O)CCCCC2)cc1 (stereo not given) [VENLAFAXINE] | Not Active
30 | CN(N=O)C(=O)N[C@@H](C=O)[C@@H](O)[C@H](O)[C@H](O)CO [STREPTOZOCIN] | Not Active

Target: T7, Adenosine receptor A3 (Homo sapiens, UniProt P0DMS8)
T7 sequence (P0DMS8 whole entry): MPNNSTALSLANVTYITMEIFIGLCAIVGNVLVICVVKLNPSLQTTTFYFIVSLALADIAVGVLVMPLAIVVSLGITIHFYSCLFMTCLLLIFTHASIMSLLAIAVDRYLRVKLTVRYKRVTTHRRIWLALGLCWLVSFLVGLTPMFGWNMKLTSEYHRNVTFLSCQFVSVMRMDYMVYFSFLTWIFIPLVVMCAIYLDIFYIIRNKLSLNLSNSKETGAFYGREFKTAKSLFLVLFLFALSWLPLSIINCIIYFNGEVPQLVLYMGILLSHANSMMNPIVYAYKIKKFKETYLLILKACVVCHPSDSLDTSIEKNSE
Assay: not given
Format: cell membranes, CHO-K1, Membrane
Details: cho-k1

Row | Structure (SMILES) | IC50
31 | COC(=O)[C@@H]1[C@H]2C[C@H]3c4[nH]c5ccccc5c4CCN3C[C@@H]2CC[C@@H]1O [YOHIMBINE] | Not Active
32 | COc1ccc(C(CN(C)C)C2(O)CCCCC2)cc1 (stereo not given) [VENLAFAXINE] | Not Active
33 | CN(N=O)C(=O)N[C@@H](C=O)[C@@H](O)[C@H](O)[C@H](O)CO [STREPTOZOCIN] | Not Active

Tested on: not listed separately
Assay: DRUGMATRIX: Phorbol Ester radioligand binding (ligand: [3H] PDBu)
Format: cell membranes, Mus musculus, ICR, Brain, Membrane
Details: Not Active = under 50% inhibition at 10 µM

Row | Structure (SMILES) | IC50 | Ki
34 | COC(=O)[C@@H]1[C@H]2C[C@H]3c4[nH]c5ccccc5c4CCN3C[C@@H]2CC[C@@H]1O [YOHIMBINE] | Not Active | Not Active
35 | COc1ccc(C(CN(C)C)C2(O)CCCCC2)cc1 (stereo not given) [VENLAFAXINE] | Not Active | Not Active
36 | CN(N=O)C(=O)N[C@@H](C=O)[C@@H](O)[C@H](O)[C@H](O)CO [STREPTOZOCIN] | Not Active | Not Active
